Source: patent US20230000816A1, “SODIUM-GLUCOSE LINKED TRANSPORTER INHIBITORS FOR THE MANAGEMENT OF CHRONIC KIDNEY DISEASE, HYPERTENSION, AND HEART FAILURE IN COMPANION ANIMALS” (INCREVET, INC., priority 2019, published 2023)
In brackets after ≈: the same amount, converted by molar mass.

Key:
[1] = test system: cats with diabetes; test: Measures of renal health (creatinine, BUN, SDMA) in diabetic cats managed with bexagliflozin, MMRM analysis; type: in vivo, cat
Excerpt: Venous blood specimens were collected at regular intervals and analyzed for standard parameters of interest for routine clinical care, including creatinine, BUN and SDMA. Owners were advised to provide a diet low in carbohydrates as an element of the disease management plan. An important consequence of the shift to a low carbohydrate diet is the increase in dietary protein (contributing to BUN) and specifically dietary muscle-derived protein (contributing to creatinine).
FIG. 6, FIG. 7 and FIG. 8 show the measured concentrations of creatinine, BUN and SDMA in cats as a function of time in the study. […] Considerable variation can be seen in the individual values.
To identify treatment-related trends, the data for each of the three analytes were analyzed by a mixed model repeated measures (MMRM) analysis of covariance, with cat as a categorical (class) effect and day of measurement and initial value at the baseline visit as continuous covariates. Because the diets of many of the animals were changed at the baseline visit, and the effects of diet on creatinine and BUN are generally thought to be prompt, the analysis considered only changes in analyte values over the non-baseline visit days.

[2] = test system: purpose-bred beagles; test: Serum glucose after single oral dose and glucose challenge 1 h post-dose in dogs; type: in vivo, dog; conditions: mean ± SD; for Serum Glucose Concentration, 15 min / Serum Glucose Concentration, 30 min / Serum Glucose Concentration, 60 min / Serum Glucose Concentration, 120 min: after glucose challenge; for Serum Glucose Concentration, −60 min: before dosing; for Serum Glucose Concentration, 0 min: before glucose challenge (1 h post-dose)
Description: Groups of four purpose-bred beagles per cohort were administered ascending doses of bexagliflozin in the form of a proline co-crystal consisting of two moles of L-proline for every mole of bexagliflozin. The co-crystal was dissolved in 10% PEG400 and administered by oral gavage to dogs that had been fasted overnight. Control dogs were administered 10% PEG400. One hour after dosing, glucose solution (2 g kg^−1, 5 ml kg^−1) was administered by gavage. Serum glucose concentrations were quantitated by an automated clinical chemistry analyzer for samples collected before dosing, before glucose challenge, and 15, 30, 60, and 120 min after glucose challenge. Urine was collected from 0 to 4 h, 4 to 8 h and 8 to 24 h after dosing for electrolyte analyses (Na^+, K^+, Cl^− and Ca^2+) and glucose measurement. Whole blood samples of approximately 500 μL were collected from the cephalic vein 0, 0.25, 0.5, 1, 2, 4, 8, 12 and 24 h after dosing for pharmacokinetic analysis.

[3] = test system: feline SGLT1; test: Inhibition of feline SGLT1
[4] = Solubility; type: physicochemical
[5] = target: T1, human SGLT2 (Homo sapiens, UniProt P31639); test: Inhibition of human SGLT2
T1 sequence (P31639 1-672): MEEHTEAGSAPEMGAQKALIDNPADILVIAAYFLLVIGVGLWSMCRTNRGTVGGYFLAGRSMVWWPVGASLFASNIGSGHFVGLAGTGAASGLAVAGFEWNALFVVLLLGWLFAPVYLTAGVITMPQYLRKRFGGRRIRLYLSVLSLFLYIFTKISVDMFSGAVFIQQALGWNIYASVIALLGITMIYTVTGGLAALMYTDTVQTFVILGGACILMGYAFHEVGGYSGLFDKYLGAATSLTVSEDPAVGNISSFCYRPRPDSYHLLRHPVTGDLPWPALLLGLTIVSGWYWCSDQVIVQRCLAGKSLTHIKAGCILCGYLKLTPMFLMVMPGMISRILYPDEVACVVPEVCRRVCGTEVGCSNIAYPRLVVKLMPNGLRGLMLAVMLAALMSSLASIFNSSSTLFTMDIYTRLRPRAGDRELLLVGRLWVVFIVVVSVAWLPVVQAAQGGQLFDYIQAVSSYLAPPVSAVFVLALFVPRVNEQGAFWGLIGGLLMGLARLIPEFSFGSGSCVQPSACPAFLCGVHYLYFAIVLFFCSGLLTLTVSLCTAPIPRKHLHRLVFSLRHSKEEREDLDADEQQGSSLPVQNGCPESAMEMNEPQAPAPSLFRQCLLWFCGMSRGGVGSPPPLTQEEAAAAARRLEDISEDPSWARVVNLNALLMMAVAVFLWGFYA

[6] = test system: Sprague-Dawley rats; test: PPAR-γ agonist (pioglitazone)-mediated fluid retention / plasma expansion model, 7 days, drugs in drinking water; type: in vivo, rat
Excerpt: It has been recognized in human clinical practice that an undesirable side effect of PPAR-γ agonists of the thiazolidinedione class is fluid retention and edema, which limits their use in patients with congestive heart failure. The mechanism of action of the thiazolidinediones is believed to be through stimulation of expression of the epithelial sodium channel (ENaC) in the kidney, resulting in an increased uptake of sodium ions from the distal tubule. Sodium retention and the associated expansion of extracellular fluid volume are characteristic features of congestive heart failure in multiple species. […] The sodium channel blocker amiloride was delivered in drinking water to a third group of rats as a comparator. Plasma expansion was measured by hematocrit. […] Food weight was recorded to measure consumption over the course of the experiment. […] Full bottles were pre-weighed and the weights recorded to allow consumption to be measured over the course of the experiment. On days 1 and 7, rats were warmed using a heating pad and lightly anesthetized using isoflurane. Using a sterile scalpel blade, a small tail nick was made on the distal one third of the tail. Blood was collected in a heparinized microcapillary tube sealed with putty at one end and stored on ice until centrifugation (5000 rpm, 5 min). Plasma volume was determined using a microhematocrit capillary tube reader card. On day 7, rats, food and water bottles were again weighed and recorded and hematocrits were determined using blood collected by a tail nick.

[7] = rats, day 1 to day 7, mean ± SEM
[8] = rats, pioglitazone diet, mean ± SEM
[9] = rats, relative to day 1, mean ± SEM

solubility in ethanol, propylene glycol and PEGs relative to water [4]: more soluble
solubility ([4]; water at 25° C.): ~500 µg/mL (≈ 1080 µM)
inhibition of human SGLT2 (in words) [5]: highly effective and specific inhibitor
Compound: OC[C@H]1O[C@@H](c2ccc(Cl)c(Cc3ccc(OCCOC4CC4)cc3)c2)[C@H](O)[C@@H](O)[C@@H]1O [Bexagliflozin, (2S,3R,4R,5 S,6R)-2-(4-chloro-3-(4-(2-cyclopropoxyethoxy)benzyl)phenyl)-6-(hydroxymethyl)tetrahydro-2H-pyran-3,4,5-triol]
model-adjusted population mean BUN concentration ([1]; diabetic cats on bexagliflozin): 33.82 mg/dL
model-adjusted population mean SDMA concentration ([1]; diabetic cats on bexagliflozin): 19.10 µg/dL
model-adjusted population mean creatinine concentration ([1]; diabetic cats on bexagliflozin, non-baseline visits): 1.367 mg/dL
estimated coefficient for day of measurement, creatinine ([1]; diabetic cats, p<0.0001): 0.000928
estimated coefficient for day of measurement, BUN ([1]; diabetic cats, p=0.0172): −0.01346
estimated coefficient for day of measurement, SDMA ([1]; diabetic cats, p=0.5338, not significant): −0.0021
Serum Glucose Concentration, 15 min ([2]; 0.02 mg kg^−1 oral): 122.13 ± 17.54 mg/dL
Serum Glucose Concentration, 30 min ([2]; 0.02 mg kg^−1 oral): 97.43 ± 6.87 mg/dL
Serum Glucose Concentration, 60 min ([2]; 0.02 mg kg^−1 oral): 93.29 ± 19.87 mg/dL
Serum Glucose Concentration, 120 min ([2]; 0.02 mg kg^−1 oral): 78.03 ± 10.98 mg/dL
Serum Glucose Concentration, −60 min ([2]; 0.02 mg kg^−1 oral, time relative to glucose challenge): 100.89 ± 3.49 mg/dL
Serum Glucose Concentration, 0 min ([2]; 0.02 mg kg^−1 oral): 95.94 ± 8.37 mg/dL
Serum Glucose Concentration, 15 min ([2]; 0.067 mg kg^−1 oral): 107.91 ± 12.08 mg/dL
Serum Glucose Concentration, 30 min ([2]; 0.067 mg kg^−1 oral): 104.31 ± 26.84 mg/dL
Serum Glucose Concentration, 60 min ([2]; 0.067 mg kg^−1 oral): 104.27 ± 17.85 mg/dL
Serum Glucose Concentration, 120 min ([2]; 0.067 mg kg^−1 oral): 79.65 ± 11.69 mg/dL
Serum Glucose Concentration, −60 min ([2]; 0.067 mg kg^−1 oral): 98.64 ± 7.63 mg/dL
Serum Glucose Concentration, 0 min ([2]; 0.067 mg kg^−1 oral): 91.58 ± 6.49 mg/dL
Serum Glucose Concentration, 15 min ([2]; 0.20 mg kg^−1 oral): 96.71 ± 7.21 mg/dL
Serum Glucose Concentration, 30 min ([2]; 0.20 mg kg^−1 oral): 105.48 ± 18.67 mg/dL
Serum Glucose Concentration, 60 min ([2]; 0.20 mg kg^−1 oral): 101.75 ± 14.83 mg/dL
Serum Glucose Concentration, 120 min ([2]; 0.20 mg kg^−1 oral): 76.10 ± 7.91 mg/dL
Serum Glucose Concentration, −60 min ([2]; 0.20 mg kg^−1 oral): 97.02 ± 7.61 mg/dL
Serum Glucose Concentration, 0 min ([2]; 0.20 mg kg^−1 oral): 84.65 ± 7.98 mg/dL
Serum Glucose Concentration, 15 min ([2]; 0.67 mg kg^−1 oral): 109.94 ± 17.55 mg/dL
Serum Glucose Concentration, 30 min ([2]; 0.67 mg kg^−1 oral): 109.04 ± 26.58 mg/dL
Serum Glucose Concentration, 60 min ([2]; 0.67 mg kg^−1 oral): 106.79 ± 11.98 mg/dL
Serum Glucose Concentration, 120 min ([2]; 0.67 mg kg^−1 oral): 76.95 ± 11.53 mg/dL
Serum Glucose Concentration, −60 min ([2]; 0.67 mg kg^−1 oral): 97.70 ± 5.27 mg/dL
Serum Glucose Concentration, 0 min ([2]; 0.67 mg kg^−1 oral): 87.08 ± 6.03 mg/dL
Serum Glucose Concentration, 15 min ([2]; 2.0 mg kg^−1 oral): 104.49 ± 9.60 mg/dL
Serum Glucose Concentration, 30 min ([2]; 2.0 mg kg^−1 oral): 112.86 ± 9.82 mg/dL
Serum Glucose Concentration, 60 min ([2]; 2.0 mg kg^−1 oral): 108.81 ± 6.77 mg/dL
Serum Glucose Concentration, 120 min ([2]; 2.0 mg kg^−1 oral): 71.06 ± 5.49 mg/dL
Serum Glucose Concentration, −60 min ([2]; 2.0 mg kg^−1 oral): 92.21 ± 7.11 mg/dL
Serum Glucose Concentration, 0 min ([2]; 2.0 mg kg^−1 oral): 85.10 ± 4.74 mg/dL
potency for feline SGLT1 (in words) [3]: high potency
Plasma volume, Day 7 ([6]; rats after 7 days pioglitazone diet, group mean ± SEM): 54.7 ± 0.6 % of blood volume
Plasma volume, Day 1 ([6]; rats on 0.03% pioglitazone diet, by hematocrit, group mean ± SEM): 52.9 ± 0.5 % of blood volume
Effect on pioglitazone-mediated plasma expansion (conclusion) ([6]; rats, 7 days): substantially attenuates pioglitazone-mediated plasma expansion
Body Weight (%), Δ (percent mass gain) [6, 7]: 4.8 ± 1.3 %
Body Weight (g), Δ [6, 7]: 17.5 ± 4.7 g
Body Weight (%), Δ (percent mass gain) ([6]; rats, day 1 to day 7, mean ± SEM, listed as bexagliflozin): 4.8%
Plasma volume, Δ (day 1 to day 7) ([6]; rats, pioglitazone diet, group mean ± SEM): 1.8 ± 0.8 % of blood volume
Body Weight (g), Day 1 [6, 8]: 371.7 ± 5.0 ^ g
Body Weight (g), Day 7 [6, 8]: 389.2 ± 5.7 ^†† g
Body Weight (%), Day 1 [6, 9]: 100 ± 0 ^ %
Body Weight (%), Day 7 [6, 9]: 104.8 ± 1.3 ^†† %
